In general, IC50 refers to the concentration needed to halve the response being measured.

From US20260272878A1, “ADAR1 INHIBITORS AND USES THEREOF” (THE WISTAR INSTITUTE OF ANATOMY AND BIOLOGY, priority 2023, published 2026) come the findings set out here.

“Also recorded” adds a separate entry of the source.

Test [1] deals with T1, ADAR2 (Homo sapiens, UniProt P78563).
T1 sequence (P78563 1-741): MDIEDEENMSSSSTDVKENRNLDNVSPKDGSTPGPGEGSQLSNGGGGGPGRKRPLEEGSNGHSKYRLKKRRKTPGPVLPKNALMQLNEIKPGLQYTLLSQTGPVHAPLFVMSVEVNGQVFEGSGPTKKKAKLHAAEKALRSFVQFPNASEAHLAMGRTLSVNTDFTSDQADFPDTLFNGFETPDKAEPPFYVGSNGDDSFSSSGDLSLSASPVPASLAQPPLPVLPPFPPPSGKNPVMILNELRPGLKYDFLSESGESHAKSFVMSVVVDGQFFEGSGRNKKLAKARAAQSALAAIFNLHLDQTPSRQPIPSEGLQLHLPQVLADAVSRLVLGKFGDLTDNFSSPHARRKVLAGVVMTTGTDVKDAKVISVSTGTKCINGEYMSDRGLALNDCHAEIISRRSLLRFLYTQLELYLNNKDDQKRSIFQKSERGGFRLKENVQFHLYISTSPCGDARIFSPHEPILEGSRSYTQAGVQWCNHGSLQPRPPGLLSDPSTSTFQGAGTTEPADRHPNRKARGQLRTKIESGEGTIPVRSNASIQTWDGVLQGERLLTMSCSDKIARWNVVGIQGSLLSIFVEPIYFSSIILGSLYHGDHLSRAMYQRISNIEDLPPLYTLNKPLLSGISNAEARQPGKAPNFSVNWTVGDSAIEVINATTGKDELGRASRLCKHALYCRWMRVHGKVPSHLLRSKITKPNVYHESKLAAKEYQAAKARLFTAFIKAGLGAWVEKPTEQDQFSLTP
Kind of test: In vitro editing assay, ADAR2. The note with it: ADAR2 mediated A-to-I editing in vitro. Format: biochemical.

The subject of test [2] is HeLa non-ALT cancer cells. Description: Cancer cell killing / viability (Apo Tox-Glo), HeLa. Type of test: cell-based, human. The note with it: for Killing of HeLa cells: result in words. As to the method: (§1) FIGS. 8A-8C show analysis of ADAR1i-124 effects in cancer cells. […] Viability was examined using the Apo Tox-Glo assay system. Control, 0.3% DMSO. Data: mean±SD (n=3). Significant differences identified by two-tailed Student's t-tests: *P<0.05, n.s., not significant. (FIG. 8B) Western blotting analysis of HeLa cells treated with ADAR1i-124 (10 μM).
(§2) FIGS. 9A-9C show dose-dependent killing of cancer cells and activation of IFN signaling. […] YUMM1.7 (FIG. 9B) and HGS2 cells (FIG. 9C) were treated with ADAR1i-124 at 10 μM (12 hrs). RNA samples were analyzed by qRT-PCR to monitor ISG expression levels. Data: mean±SD (n=3). Significant differences were identified by two-tailed Student's t-tests: ***P<0.001.
(§3) Dose-dependent selective killing of telomerase reactivated cancer cells was determined (FIG. 9A).

Test [3] relates to IMR90 normal fibroblast cells. Kind of test: Cell killing / viability, IMR90. Type of test: cell-based. The protocol:
as §1, §2, §3

The test system of test [4] is HeLa cells. Kind of test: Dot blot analysis for RNA:DNA hybrids (R-loops). Format: cell-based, human. The note with it: 10 μM for ADAR1i-124.

Take `N#Cc1ccccc1NC(=O)c1sc2ccccc2c1Cl` [ADAR1i-120]: the ADAR2 inhibitory activity entry in test [1] is on record as “No ADAR2 inhibitory activity was detected”. In addition, in test [2], the “Killing of HeLa cells” value is “killed selectively”. The “Killing of IMR90 cells” value in test [3] is reported as “not ALT U2OS cells or IMR90 normal fibroblast cells”. Besides, in test [4], the “Formation of R-loops (RNA:DNA hybrids)” value is given as “increased formation of R-loops”.
With `N#Cc1ccc(NC(=O)c2c(Cl)c3ccccc3n2CO)cc1` [ADAR1i-124], the ADAR2 inhibitory activity result in test [1] was “No ADAR2 inhibitory activity was detected; also recorded: did not inhibit ADAR2 mediated A-to-I editing in vitro; also recorded: No ADAR2 inhibition detected”. In addition, in test [2] (10 μM, Apo Tox-Glo, control 0.3% DMSO), the “Viability of HeLa cells” value was “selectively reduced viability”. In addition, the 50% inhibitory concentration (IC50) in test [2] (Homo sapiens, HeLa, read-out: IC50 for selective killing of HeLa cells) was roughly 400 nM. The “Killing of HeLa cells” value in test [2] is listed as “killed selectively; also recorded: dose-dependently killed”. The “Killing of IMR90 cells” value in test [3] is on record as “not ALT U2OS cells or IMR90 normal fibroblast cells; also recorded: unaffected”. Further, the “Formation of R-loops (RNA:DNA hybrids)” value in test [4] is on record as “increased formation of R-loops; also recorded: RNA:DNA hybrids induced”.
For the compound `N#Cc1ccc(NC(=O)c2sc3ccccc3c2Cl)cc1` [ADAR1i-13, 3-chloro-N-(4-cyanophenyl)-1-benzothiophene-2-carboxamide], the ADAR2 inhibitory activity entry in test [1] is “No ADAR2 inhibitory activity was detected; also recorded: did not inhibit ADAR2 mediated A-to-I editing in vitro”. In addition, in test [2], the “Killing of HeLa cells” value is recorded as “killed selectively”. Also, in test [3], the “Killing of IMR90 cells” value is on record as “not ALT U2OS cells or IMR90 normal fibroblast cells”. In addition, the “Formation of R-loops (RNA:DNA hybrids)” value in test [4] is “increased formation of R-loops”.
